Data: publication PMC10419174, “WR1065 conjugated to thiol-PEG polymers as novel anticancer prodrugs: broad spectrum efficacy, synergism, and drug resistance reversal” (Frontiers in Oncology, 2023)
Several values for one entry are separate records, joined by “and”; a condition that tells them apart may be missing. Identical values can stand only once. Like-named read-outs stand apart in the source and are kept apart here. Marks after values point to notes of the source that are not given here.

What was measured:
[1] = tested on: Mammary gland HCC38 cells; experiment: CyQUANT-NF proliferation assay, 48-h drug treatment; format: cell-based; conditions: for Relative cell inhibition: 99% confluent cells, 48 h
NCI-H460 NSCLC cells = conditions: for Fold increase in efficacy: drug alone ÷ drug in 4SP65-DDP combination
From the text: To test anticancer effectiveness of individual drugs or drug combinations, the CyQUANT®-NF proliferation assay was used with a plate reader (i) to generate standard curves for cell numbers for each cell line, (ii) to measure the starting cell numbers at initiation of drug treatment, and (iii) to obtain fluorescence readings from cells in 96-well plates for comparisons to a standard curve for the relevant cancer cell line and quantifying cell viability after drug treatments. […] Trypan blue exclusion was used to estimate cell numbers in a few pilot experiments and thereafter was applied to confirm very low viable cell numbers and cell death.
A series of experiments was conducted to determine the relative efficacy of 4SP65, 1LP65, and amifostine as single agents in the same human cancer cell lines.
Five metrics were calculated and used to characterize the shape of the dose-response curve following exposure to a single test agent. Using cell numbers based on fluorescence measurements and standard curves, the percentage growth was calculated at each drug concentration level. The percentage of growth inhibition was calculated as follows:
where Tz = cell numbers or fluorescence counts at time xero, C = vehicle-exposed control cell numbers at the end of the assessment time period, and Ti = test agent-exposed cell numbers or fluorescence counts at each drug concentration. […] The LC50/99 was calculated using Equation 2 = -50 and Eq. 2 = -99, respectively. […] For NHMECs, the relationships between drug exposure levels and fluorescence units were used to define dose-response metrics. The selectivity index values for individual drugs were calculated using IC50 levels in NHMECs divided by the IC50 value for each cancer cell line. Statistical comparisons of differences in individual dose-response metrics between drug treatments and cell lines were conducted using Student’s t-test, with P-values <0.05 considered significant.
Relative cell growth inhibition values for differing levels of each drug alone and in combination were input into SynergyFinder to generate dose-response curves for each drug alone and to produce a dose-response matrix. The dose-response matrix data then were used in generating a two-dimension heatmap and three-dimension volcano plot to visualize the distribution of areas of differing degrees of synergism and to calculate average and maximum synergy scores in selected human cancer cell lines. The expected drug combination responses were calculated using both the Highest Single Agent (HSA) model and the Zero interaction potency (ZIP) model.

Prostate DU145 cells = experiment: cells
Method: (§1) The percentage of growth inhibition was calculated as follows: […]

NCI-H1975 NSCLC cells = experiment: cells
Method: as §1

[2] = Solubility, storage and stability of 4SP65 and 1LP65; format: physicochemical
Method: prepared for use and that was not altered by the solvent used, heating up to 37 °C for up to 3 days, and shaking or rocking for up to 3 days at RT or 4°C. For experiment, an aliquot of drug was first mixed in medium, the solvent was removed and saved, and gel pieces were recovered, dried on a vacuum pump, […]
The difference in the starting weight of drug placed into solvent minus the weight of the residue after drying on a vacuum pump was considered to represent the amount of drug that went into solution. The amount of drug that was dissolved at a given time ranged from 40 to 61%, averaging 50.7 ± 8.1% (SD). The weight of the 4SP65 in solution was then used for diluting the drug to concentrations of 200 or 400 µM in supplemented RPMI or DMEM/F12 medium for routine treatment of cells. The dried residue was not used in the in vitro drug efficacy studies. The formation of a gel in the aqueous solvents tested was unexpected since […]
few free thiols in polymer arms of the PEG scaffold for cross-linking reactions to occur. However, unintended topical entanglements between polymer chains of multi-arm PEG-thiol molecules without disulfide formation have been reported (Tang and Bradley 2014 24860800). Aliquots of 4SP65 dissolved in FBS enriched medium has remained stable for >6 months while remnants of the original viscous polymer have maintained stability without any apparent loss of activity when stored for 60 […]
However, the bulk of the product was dissolved at 40 mM in DMSO and stored in aliquots at −80°C for future use once by further dilution in DMSO and then final dilution in medium for treatment of normal human epithelium and human cancer cell lines at working solutions of 4 mM or 400 µM drug. 1LP65 has maintained stability for six months in frozen aliquots but should be stable in DMSO at −80°C for two to three years based upon recommended storage conditions for cystamine dihydrochloride (Selleck Chemical product information), an analogous 225 Da compound with a disulfide bond and amine groups like 1LP65. […]

NCI-H1437 NSCLC cells = tested on: NCI-H1437 NSCLC cells
Method: as §1

[3] = tested on: Strain-2 and Strain-3 NHMECs; format: cell-based; conditions: 48 h; for IC50: read-out: IC50
From the text: Normal human mammary epithelial cell (NHMEC) strains used to assess potential cytotoxicity of 4SP65 and 1LP65 were established from reduction mammoplasty tissue from a healthy donor (M99005 or ‘Strain-1’) ([53]) or purchased from ATCC (Manassas, VA, USA; batch#70043304 or ‘Strain-2’) or Cell Applications (San Diego, CA, USA; lot#1669 or ‘Strain-3’). Human cancer cell lines including HCC38, MDA-MB-231, A549, National Cancer Institute (NCI)-H460, NCI-H1437, NCI-H1975, DU145, LNCaP, PC3, PANC1, SKOV3, and HL60, which were free of Mycoplasma, were purchased from ATCC. HMESO1, PPMMill, and TOV21G cells, obtained from Dr. Brian Cunniff, were verified to be Mycoplasma negative using the LookOut® Mycoplasma PCR Detection Kit (Sigma-Aldrich) and to match previously annotated DNA fingerprints by the Vermont Integrative Genomics Resource DNA Analysis Facility.
To assess the effects of 4SP65 or 1LP65 on the growth of normal epithelium, experiments were performed using NHMEC strains from differing donors ([53]). Strain-1 NHMECs were plated at 5,000 cells/well in 24-well plates and allowed to reach 50% confluence before treatment with 0-150 µM 4SP65 for 48 h. Cell viability was determined using a hemocytometer and trypan blue exclusion assay. Two other NHMEC strains, exposed to 0-150 µM 4SP65 or 0-500 µM 1LP65 for 48 h, were handled in the same fashion except that viability of cells in 96-well plates was determined using CyQUANT dye. Due to the short life span of these NHMECs, standard curves were not generated and fluorescence readings were used as a surrogate marker of cell number ([54]).

[4] = 48-h treatment, amifostine ND = not definable up to 500 µM
[5] = drug alone, 48 h, 4SP65/cisplatin study
[6] = drug alone, 48 h, 4SP65/cisplatin study, ND = not definable, highest concentration in parentheses
[7] = aqueous solvents/medium, remainder formed a gel

4-star-PEG-S-S-WR1065 [4SP65]
CC50 [1]: 6.8 ± 0.9 µM
GI50 [1, 4]: 1.3 ± 0.4 µM
IC50 [1, 4]: 4.1 ± 0.2 µM
LC99 [1, 4]: 11.9 ± 1.6 µM
TGI [1, 4]: 3.7 ± 0.3 µM
Relative cell inhibition ([1]; 10 µM 4SP65 alone): 3.4 ± 10.9%
Relative cell inhibition ([1]; 10 µM 4SP65 with 10 µM insulin): 42 ± 6.5%
selectivity index ([1]; IC50 in NHMECs ÷ IC50 in HCC38, average): > 31
Dose reduction value 1LP65 ÷ 4SP65 ([1]; at GI50): 28 fold
Dose reduction value AMF ÷ 4SP65 ([1]; at GI50): 60 fold
Dose reduction value 1LP65 ÷ 4SP65 ([1]; at IC50): 12 fold
Dose reduction value AMF ÷ 4SP65 ([1]; at IC50): 67 fold
Dose reduction value 1LP65 ÷ 4SP65 ([1]; at LC50): 8.8 fold
Dose reduction value 1LP65 ÷ 4SP65 ([1]; at LC99): 7.1 fold
Dose reduction value 1LP65 ÷ 4SP65 ([1]; at TGI): 13 fold
Dose reduction value AMF ÷ 4SP65 ([1]; at TGI): 69 fold
fold increase in drug efficacy with insulin ([1]; growth-arrested cells): 12.4 fold
GI50 (NCI-H460 NSCLC cells; [4]): 9.4 ± 1.5 µM
IC50 (NCI-H460 NSCLC cells; [4]): 10.7 ± 1.3 µM
LC99 (NCI-H460 NSCLC cells; [4]): 17.7 ± 0.8 µM
TGI (NCI-H460 NSCLC cells; [4]): 14.1 ± 1.5 µM and 14.1 µM
Dose reduction value 1LP65 ÷ 4SP65 (NCI-H460 NSCLC cells; at GI50): 8.3 fold
Dose reduction value 1LP65 ÷ 4SP65 (NCI-H460 NSCLC cells; at IC50): 8.4 fold
Dose reduction value 1LP65 ÷ 4SP65 (NCI-H460 NSCLC cells; at LC50): 9.5 fold
Dose reduction value 1LP65 ÷ 4SP65 (NCI-H460 NSCLC cells; at LC99): 10 fold
Dose reduction value 1LP65 ÷ 4SP65 (NCI-H460 NSCLC cells; at TGI): 8.8 fold
Fold increase in efficacy (NCI-H460 NSCLC cells; at GI50): 36 fold
Fold increase in efficacy (NCI-H460 NSCLC cells; at IC50): 20** fold
Fold increase in efficacy (NCI-H460 NSCLC cells; at LC50, GoE = gain of effect): 5.3^c fold
Fold increase in efficacy (NCI-H460 NSCLC cells; at LC99, GoE = gain of effect): 4.3^c fold
Fold increase in efficacy (NCI-H460 NSCLC cells; at TGI, GoE = gain of effect): 7.4^c fold
GI50 (NCI-H460 NSCLC cells; [5]): 12.3 ± 1.1 µM
IC50 (NCI-H460 NSCLC cells; [5]): 13.3 ± 1 µM
LC99 (NCI-H460 NSCLC cells; [6]): 18.2 ± 0.4 µM
TGI (NCI-H460 NSCLC cells; [6]): 16.9 ± 0.6 µM
CC50 (Prostate DU145 cells): 11.1 ± 0.1 µM
GI50 (Prostate DU145 cells; [4]): 7.5 ± 1.2 µM
IC50 (Prostate DU145 cells; [4]): 8.5 ± 1 µM
LC99 (Prostate DU145 cells; [4]): 12.0 ± 0.1 µM
TGI (Prostate DU145 cells; [4]): 9.5 ± 0.7 µM and 9.5 µM
Dose reduction value 1LP65 ÷ 4SP65 (Prostate DU145 cells; at GI50): 3.5 fold
Dose reduction value AMF ÷ 4SP65 (Prostate DU145 cells; at GI50): 17 fold
Dose reduction value 1LP65 ÷ 4SP65 (Prostate DU145 cells; at IC50): 3.5 fold
Dose reduction value AMF ÷ 4SP65 (Prostate DU145 cells; at IC50): 38 fold
Dose reduction value 1LP65 ÷ 4SP65 (Prostate DU145 cells; at LC50): 6.4 fold
Dose reduction value 1LP65 ÷ 4SP65 (Prostate DU145 cells; at LC99): 7.0 fold
Dose reduction value 1LP65 ÷ 4SP65 (Prostate DU145 cells; at TGI): 5.6 fold
CC50 (NCI-H1975 NSCLC cells): 7.6 ± 1.3 µM
GI50 (NCI-H1975 NSCLC cells; [4]): 3.1 ± 0.6 µM
IC50 (NCI-H1975 NSCLC cells; [4]): 4.2 ± 1 µM
LC99 (NCI-H1975 NSCLC cells; [4]): 9.3 ± 1.1 µM
TGI (NCI-H1975 NSCLC cells; [4]): 5.2 ± 0.9 µM
Dose reduction value 1LP65 ÷ 4SP65 (NCI-H1975 NSCLC cells; at GI50): 13 fold
Dose reduction value AMF ÷ 4SP65 (NCI-H1975 NSCLC cells; at GI50): 42 fold
Dose reduction value 1LP65 ÷ 4SP65 (NCI-H1975 NSCLC cells; at IC50): 13 fold
Dose reduction value 1LP65 ÷ 4SP65 (NCI-H1975 NSCLC cells; at LC50): 8.3 fold
Dose reduction value 1LP65 ÷ 4SP65 (NCI-H1975 NSCLC cells; at LC99): 9.3 fold
Dose reduction value 1LP65 ÷ 4SP65 (NCI-H1975 NSCLC cells; at TGI): 10 fold
highest level testable based upon maximum solubility in aqueous medium [2]: 150 µM
storage time with maintained stability without apparent loss of activity [2]: 60 months
time remained stable ([2]; aliquots dissolved in FBS enriched medium): > 6 months
amount of drug dissolved at a given time, average (SD) [2, 7]: 50.7 ± 8.1%
amount of drug dissolved at a given time, range [2, 7]: 40 to 61%
CC50 (NCI-H1437 NSCLC cells): 19.6 ± 0.7 µM
GI50 (NCI-H1437 NSCLC cells; [4]): 10.6 ± 2 µM
IC50 (NCI-H1437 NSCLC cells; [4]): 12.5 ± 2.6 µM
LC99 (NCI-H1437 NSCLC cells; [4]): 21.1 ± 0.2 µM
TGI (NCI-H1437 NSCLC cells; [4]): 16.3 ± 1.9 µM
Dose reduction value 1LP65 ÷ 4SP65 (NCI-H1437 NSCLC cells; at GI50): 6.5 fold
Dose reduction value 1LP65 ÷ 4SP65 (NCI-H1437 NSCLC cells; at IC50): 6.0 fold
Dose reduction value 1LP65 ÷ 4SP65 (NCI-H1437 NSCLC cells; at LC50): 8.0 fold
Dose reduction value 1LP65 ÷ 4SP65 (NCI-H1437 NSCLC cells; at LC99): 11 fold
Dose reduction value 1LP65 ÷ 4SP65 (NCI-H1437 NSCLC cells; at TGI): 6.3 fold
IC50 ([3]; Strain-2 NHMECs): > 150 µM
growth enhancement ([3]; Strain-2 and Strain-3 cells, 3 µM): 162% ± 7%
growth relative to control cells ([3]; Strain-2 and Strain-3 cells, 9 µM): 78% ± 12%
growth relative to control cells ([3]; Strain-2 and Strain-3 cells, 30 µM): 52% ± 8%
growth relative to control cells ([3]; Strain-2 and Strain-3 cells, 90 µM): 21% ± 4%
growth relative to control cells ([3]; Strain-2 and Strain-3 cells, 150 µM): 8.7% ± 2%
IC50 ([3]; Strain-3 NHMECs): 76 ± 14 µM
